Test in all cases: relative viability (nuclei count vs DMSO), 5 days (fraction); higher = more cells survive
Compound in test [1]: Cn1cc(-c2cnn3c(N)c(Br)c([C@@H]4CCCNC4)nc23)cn1 + CC1(C)CCC(c2ccc(Cl)cc2)=C(CN2CCN(c3ccc(C(=O)NS(=O)(=O)c4ccc(N[C@H](CCN5CCOCC5)CSc5ccccc5)c(S(=O)(=O)C(F)(F)F)c4)cc3)CC2)C1 [Navitoclax] (partner 0.5 µM)
The method, boiled down: (§1)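 Relative viability divides the nuclei count in treated wells by that in vehicle wells. Lung cancer cell lines were seeded in 1536-well plates, dosed by pin tool the next day, and fixed and stained after 5 days in one step with final 0.05% Triton X-100, 1% formaldehyde and 1 ug/ml Hoechst. Dosing was a single drug or a fixed anchor-drug dose plus five library-drug doses (not always all listed) in √10 steps, and values are medians of duplicate plates imaged at 4×.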

Compound in test [2]: Cn1cc(-c2cnn3c(N)c(Br)c([C@@H]4CCCNC4)nc23)cn1 + Cc1nc(Nc2ncc(C(=O)Nc3c(C)cccc3Cl)s2)cc(N2CCN(CCO)CC2)n1 [Dasatinib] (partner 0.075 µM)
The gist of the method:
as §1

Compound in test [3]: Cn1cc(-c2cnn3c(N)c(Br)c([C@@H]4CCCNC4)nc23)cn1 + C[C@@H](Oc1cc(-c2cnn(C3CCNCC3)c2)cnc1N)c1c(Cl)ccc(F)c1Cl [Crizotinib] (partner 1 µM)
The method, boiled down:
as §1

Compound in test [4]: Cn1cc(-c2cnn3c(N)c(Br)c([C@@H]4CCCNC4)nc23)cn1 + O=C(CCCCCCC(=O)Nc1ccccc1)NO [Vorinostat] (partner 1 µM)
The method, boiled down: as §1

Turning to NCI-H2023, the relative viability in test [1] (first compound 0.05 µM) worked out at 1.06; in test [1] (first compound 0.1581 µM), 0.727; in test [1] (first compound 0.5 µM) it was 0.789; in test [1] (first compound 1.581 µM), 0.304; in test [1] (first compound 5 µM), 0.192; in test [2] (first compound 0.05 µM), 0.616. For the same cell line, the relative viability was 0.513 in test [2] (first compound 0.1581 µM); 0.427 in test [2] (first compound 0.5 µM); 0.225 in test [2] (first compound 1.581 µM); 0.156 in test [2] (first compound 5 µM); 0.702 in test [3] (first compound 0.05 µM); 0.428 in test [3] (first compound 0.1581 µM). Also, the relative viability amounted to 0.436 in test [3] (first compound 0.5 µM); 0.272 in test [3] (first compound 1.581 µM); 0.172 in test [3] (first compound 5 µM); 0.65 in test [4] (first compound 0.05 µM); 0.349 in test [4] (first compound 0.1581 µM); 0.428 in test [4] (first compound 0.5 µM). In addition, the relative viability in test [4] (first compound 1.581 µM) was 0.177; in test [4] (first compound 5 µM), 0.097.
Regarding COR-L 105, the relative viability in test [1] (first compound 0.05 µM) was determined as 0.742; in test [1] (first compound 0.1581 µM), 0.693; in test [1] (first compound 0.5 µM) it was 0.649; in test [1] (first compound 1.581 µM) it was 0.713; in test [1] (first compound 5 µM) it was 0.454; in test [2] (first compound 0.05 µM) it was 0.318. Moreover, the relative viability in test [2] (first compound 0.1581 µM) is 0.336; in test [2] (first compound 0.5 µM) it was 0.341; in test [2] (first compound 1.581 µM) it was 0.29; in test [2] (first compound 5 µM) it was 0.309; in test [3] (first compound 0.05 µM), 0.739; in test [3] (first compound 0.1581 µM), 0.722. In addition, the relative viability in test [3] (first compound 0.5 µM) came out at 0.713; in test [3] (first compound 1.581 µM), 0.535; in test [3] (first compound 5 µM), 0.462; in test [4] (first compound 0.05 µM), 0.921; in test [4] (first compound 0.1581 µM), 0.723; in test [4] (first compound 0.5 µM), 0.756. Moreover, the results for the relative viability in test [4] (first compound 1.581 µM) and in test [4] (first compound 5 µM) were 0.526 and 0.616, respectively.
For the cell line NCI-H1734, the relative viability in test [1] (first compound 0.05 µM) was 0.885; in test [1] (first compound 0.1581 µM), 0.906; in test [1] (first compound 0.5 µM) it was 0.918; in test [1] (first compound 1.581 µM), 0.57; in test [1] (first compound 5 µM) it was 0.733; in test [2] (first compound 0.05 µM), 0.469. In addition, the relative viability came to 0.506 in test [2] (first compound 0.1581 µM); 0.435 in test [2] (first compound 0.5 µM); 0.345 in test [2] (first compound 1.581 µM); 0.338 in test [2] (first compound 5 µM); 0.682 in test [3] (first compound 0.05 µM); 0.804 in test [3] (first compound 0.1581 µM). Also, the relative viability came out at 0.633 in test [3] (first compound 0.5 µM); 0.661 in test [3] (first compound 1.581 µM); 0.393 in test [3] (first compound 5 µM); 0.788 in test [4] (first compound 0.05 µM); 0.75 in test [4] (first compound 0.1581 µM); 0.653 in test [4] (first compound 0.5 µM). In addition, the relative viability in test [4] (first compound 1.581 µM) is 0.586; in test [4] (first compound 5 µM), 0.348.
In the case of NCI-H3122, the relative viability in test [1] (first compound 0.05 µM) was determined as 1.06; in test [1] (first compound 0.1581 µM), 1.05; in test [1] (first compound 0.5 µM), 1.05; in test [1] (first compound 1.581 µM), 1.03; in test [1] (first compound 5 µM) it was 1.11; in test [2] (first compound 0.05 µM) it was 0.905. Also, the relative viability in test [2] (first compound 0.1581 µM) was 0.833; in test [2] (first compound 0.5 µM), 0.614; in test [2] (first compound 1.581 µM), 0.84; in test [2] (first compound 5 µM) it was 0.64; in test [3] (first compound 0.05 µM) it was 0.305; in test [3] (first compound 0.1581 µM), 0.275. The relative viability is 0.255 in test [3] (first compound 0.5 µM); 0.273 in test [3] (first compound 1.581 µM); 0.263 in test [3] (first compound 5 µM); 0.999 in test [4] (first compound 0.05 µM); 1.12 in test [4] (first compound 0.1581 µM); 0.987 in test [4] (first compound 0.5 µM). The results for the relative viability in test [4] (first compound 1.581 µM) and in test [4] (first compound 5 µM) were 0.88 and 1.11, respectively.
For the cell line CAL-12T, the relative viability in test [1] (first compound 0.05 µM) came out at 1.36; in test [1] (first compound 0.1581 µM) it was 1.24; in test [1] (first compound 0.5 µM) it was 1.12; in test [1] (first compound 1.581 µM), 0.755; in test [1] (first compound 5 µM) it was 0.159; in test [2] (first compound 0.05 µM), 0.467. For the same cell line, the relative viability in test [2] (first compound 0.1581 µM) was 0.427; in test [2] (first compound 0.5 µM), 0.26; in test [2] (first compound 1.581 µM), 0.299; in test [2] (first compound 5 µM), 0.174; in test [3] (first compound 0.05 µM), 0.612; in test [3] (first compound 0.1581 µM), 0.459. The relative viability in test [3] (first compound 0.5 µM) came to 0.485; in test [3] (first compound 1.581 µM), 0.321; in test [3] (first compound 5 µM) it was 0.176; in test [4] (first compound 0.05 µM) it was 0.848; in test [4] (first compound 0.1581 µM) it was 0.775; in test [4] (first compound 0.5 µM) it was 0.664. Further, the relative viability was found to be 0.56 in test [4] (first compound 1.581 µM) and 0.228 in test [4] (first compound 5 µM).
On to HCC-78, for which the relative viability is 0.851 in test [1] (first compound 0.05 µM); 0.794 in test [1] (first compound 0.1581 µM); 0.796 in test [1] (first compound 0.5 µM); 0.737 in test [1] (first compound 1.581 µM); 0.56 in test [1] (first compound 5 µM); 0.384 in test [2] (first compound 0.1581 µM). Moreover, the relative viability in test [2] (first compound 0.5 µM) came out at 0.388; in test [2] (first compound 1.581 µM), 0.398; in test [2] (first compound 5 µM), 0.295; in test [3] (first compound 0.05 µM), 0.323; in test [3] (first compound 0.1581 µM), 0.391; in test [3] (first compound 0.5 µM) it was 0.378. Further, the relative viability in test [3] (first compound 1.581 µM) came out at 0.344; in test [3] (first compound 5 µM), 0.218; in test [4] (first compound 0.05 µM), 0.431; in test [4] (first compound 0.1581 µM), 0.609; in test [4] (first compound 0.5 µM) it was 0.478; in test [4] (first compound 1.581 µM), 0.41. In addition, the relative viability in test [4] (first compound 5 µM) worked out at 0.416.
For NCI-H2085, the relative viability in test [1] (first compound 0.05 µM) was 1.3; in test [1] (first compound 0.1581 µM) it was 1.13; in test [1] (first compound 0.5 µM) it was 1.18; in test [1] (first compound 1.581 µM), 1.09; in test [1] (first compound 5 µM), 0.943; in test [2] (first compound 0.05 µM) it was 0.239. In addition, the relative viability in test [2] (first compound 0.1581 µM) turned out to be 0.235; in test [2] (first compound 0.5 µM) it was 0.229; in test [2] (first compound 1.581 µM), 0.24; in test [2] (first compound 5 µM) it was 0.203; in test [3] (first compound 0.05 µM) it was 0.846; in test [3] (first compound 0.1581 µM), 1.01. Further, the relative viability in test [3] (first compound 0.5 µM) was 0.733; in test [3] (first compound 1.581 µM) it was 0.794; in test [3] (first compound 5 µM) it was 0.646; in test [4] (first compound 0.05 µM), 0.801; in test [4] (first compound 0.1581 µM), 0.761; in test [4] (first compound 0.5 µM), 0.843. Also, the relative viability in test [4] (first compound 1.581 µM) is 0.725; in test [4] (first compound 5 µM), 0.61.

The values above are taken from the supplement of paper PMC10307832.
